This is an account of results in PubChem BioAssay (NCI).

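In this assay, cells in 96-well plates receive the compound at five concentrations for 48 hours. Endpoints are linearly interpolated between the surrounding concentrations. TGI: total growth inhibition.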

Test in all cases: DTP human tumour cell line panel, 48 h
Experiment [1] concerns COLO 205 colon.
For experiment [2], the system named is MALME-3M melanoma.
Experiment [3] concerns OVCAR-4 ovarian.
For experiment [4], the system named is OVCAR-5 ovarian.
Experiment [5] concerns UO-31 renal.
In experiment [6] the test system is SF-295 CNS.
The subject of experiment [7] is HL-60(TB) leukemia.
Experiment [8] has as its system LOX IMVI melanoma.
For experiment [9], the system named is NCI-H226 lung.
Experiment [10] deals with SK-MEL-28 melanoma.
Experiment [11] concerns A498 renal.
The test system of experiment [12] is MCF7 breast.

In general, TGI refers to the concentration giving total growth inhibition. The low end stands for greater sensitivity of the cells, the high end for lower sensitivity of the cells. Consider `O=C1C(Cl)C(c2ccccc2)N1n1cnc2ccccc2c1=O` (stereo not drawn), for which the TGI in [1], in experiment [2], in experiment [3], in [4], in experiment [5] and in experiment [6] was above 100 µM in each case. Besides, the TGI in [7], in experiment [8], in experiment [9] and in experiment [10] was above 100 µM in each case.

Take `C/C(=C1/CCCC2(N=NCC2c2ccccc2)C1=O)c1ccccc1` (stereo not drawn): the TGI is 31.1 µM in [1]; 59.7 µM in experiment [2]; above 100 µM in experiment [3]; above 100 µM in experiment [4]; above 100 µM in experiment [5]; above 100 µM in experiment [6]. The TGI is 25.6 µM in experiment [7], above 100 µM in experiment [8], 41.3 µM in experiment [9] and 73.2 µM in [10].

Turning to `Cc1ccc2nc(-c3ccc(N)c(I)c3)sc2c1`, the TGI in experiment [1] was 30.9 µM; in [2], above 100 µM; in [3], 41.9 µM; in experiment [4] it was above 100 µM; in experiment [5], 26.2 µM; in experiment [6], 44.9 µM. Besides, the TGI is 51 µM in [7], 40.6 µM in [9], above 100 µM in experiment [10] and 56 µM in experiment [11].

On to `COc1ccc2c(c1)CN1C(=N2)CSC1c1cc([N+](=O)[O-])ccc1Cl` (stereo not drawn), for which the TGI in experiment [1] was 92.4 µM; in experiment [2] it was above 100 µM; in [3] it was above 100 µM; in experiment [4], above 100 µM; in [5], above 100 µM; in experiment [6], above 100 µM. Also, the TGI in experiment [12] is above 100 µM; in [7], 45.8 µM; in experiment [8], above 100 µM; in [9], above 100 µM.

As for `COC(=O)C1=C(C)NC(C)=C(C(=O)OC)C1c1ccc(/[N+]([O-])=C/c2ccccc2)cc1`, the TGI is 35.1 µM in experiment [1]; 31.3 µM in experiment [2]; 32.6 µM in [3]; above 100 µM in experiment [4]; above 100 µM in [5]; above 100 µM in [6]. Moreover, the TGI is 30.4 µM in experiment [12]; 63.2 µM in experiment [7]; above 100 µM in experiment [8]; above 100 µM in [9]; 36.8 µM in [10].

Take `CCOC(=O)C(N=Nc1ccc(S(N)(=O)=O)cc1)C(C)=O` (stereo not drawn): the TGI in experiment [1], in [2], in experiment [3], in experiment [4], in experiment [5] and in experiment [6] was above 100 µM in each case. The TGI in experiment [7], in experiment [8], in experiment [9], in [10] and in [11] was above 100 µM in each case.

Regarding `COC(=O)C12C3C4C5(C(=O)OC)C(C1C35C(=O)N(C(C)C)C(C)C)C42C(=O)N(C(C)C)C(C)C` (stereo not drawn), the TGI in experiment [1], in experiment [2], in experiment [3], in experiment [4], in [5] and in [6] was above 50 µM throughout. Also, the TGI in experiment [7] is above 50 µM; in experiment [8], above 43.6 µM; in experiment [9] it was above 50 µM; in experiment [10], above 50 µM; in [11] it was above 50 µM.

With `Cc1ccc2c(c1CCCC(C)(C)O)C(=O)C(=O)C(C(C)C)=C2O`, the TGI in experiment [1], in [2], in experiment [3], in [5], in experiment [6] and in experiment [7] was above 100 µM in each case. In addition, the TGI in [9], in experiment [10] and in experiment [11] was above 100 µM each time.

Turning to `COc1cc2c(cc1OCc1ccccc1)CNCC2`, the TGI in experiment [1], in experiment [2], in experiment [3], in experiment [4], in experiment [5] and in experiment [6] was above 100 µM throughout. The TGI in experiment [7], in experiment [8], in [9], in experiment [10] and in [11] was above 100 µM throughout.

Consider `O=[N+]([O-])c1ccc(-n2nnc(C3=NCCCN3)c2-c2ccc(Cl)cc2)cc1`, for which the TGI in experiment [1], in experiment [2], in experiment [3], in experiment [4], in [5] and in experiment [6] was above 100 µM in each case. The TGI in experiment [7], in experiment [8], in experiment [9], in experiment [10] and in [11] was above 100 µM each time.

For the compound `CC(C)CC1[C@@H](OCc2ccccc2)COS(=O)N1Cc1ccccc1` (stereo partly drawn), the TGI in [1] was above 100 µM; in [2] it was 72.9 µM; in [3], above 100 µM; in experiment [4], above 100 µM; in experiment [5] it was above 100 µM; in [6], above 100 µM. Besides, the TGI in experiment [12], in experiment [8], in [9] and in experiment [10] was above 100 µM in each case.

For the compound `COc1ccc(C(=O)C(CO)Oc2ccccc2OC)cc1OC` (stereo not drawn), the concentration for total growth inhibition (TGI) in experiment [1], in experiment [2], in experiment [3], in [4], in experiment [5] and in experiment [6] was above 100 µM in each case. In addition, the TGI in [7], in experiment [8], in experiment [10] and in [11] was above 100 µM each time.

As for `Cn1ccc(C(=O)NCCOCCNC(=O)c2ccn(C)c(=O)c2O)c(O)c1=O`, the TGI in [1], in experiment [2], in [3], in experiment [5], in experiment [8] and in experiment [9] was above 100 µM throughout. Besides, the TGI in experiment [10] and in experiment [11] was above 100 µM throughout.

As to `Cc1cn(C2CC(N(O)Cc3ccccc3)C(CO)O2)c(=O)[nH]c1=O` (stereo not drawn), the TGI in experiment [1], in experiment [3], in experiment [4], in experiment [5], in experiment [6] and in [7] was above 100 µM throughout. Further, the TGI in [8], in experiment [9] and in experiment [10] was above 100 µM in each case.

`N#C/C(=C\c1ccc(O)c(O)c1)C(N)=O`: the TGI in [1], in experiment [2], in [3], in experiment [4], in experiment [5] and in [6] was above 100 µM each time. Besides, the TGI in experiment [7] is 23.9 µM; in experiment [9], above 100 µM; in [10] it was above 100 µM; in experiment [11], above 100 µM.

Turning to `COc1cc2c(cc1OC)C(O)[C@H](Br)C(C)(C)O2` (stereo partly drawn), the TGI in [1], in experiment [2], in [3], in [4], in [5] and in experiment [6] was above 100 µM throughout. Further, the TGI in experiment [7], in experiment [8], in experiment [9] and in [10] was above 100 µM each time.

Turning to `O=C(O)c1nc(-c2ccccn2)c(-c2ccccn2)nc1C(=O)O`, the TGI turned out to be 7.75 µM in [1]; 7.85 µM in experiment [2]; 12.5 µM in experiment [3]; 18.3 µM in [4]; 8.15 µM in experiment [5]; 21.8 µM in experiment [6]. Moreover, the TGI in experiment [7] was found to be 18.3 µM; in experiment [8], 16.7 µM; in experiment [9] it was 4.7 µM; in experiment [10] it was 11.1 µM; in experiment [11], 4.12 µM.

As for `Cc1ccc(C2CC(c3ccco3)=NN2c2ccccc2)o1` (stereo not drawn), the TGI in experiment [1], in [2], in experiment [3], in [4], in [5] and in experiment [6] was above 100 µM throughout. In addition, the concentration for total growth inhibition (TGI) in [7], in experiment [8], in [9] and in experiment [10] was above 100 µM each time.

Take `C=CCn1c(=O)n(CC=C)c(=O)n(CC=C)c1=O`: the TGI in [1], in experiment [2], in [4], in [5], in experiment [6] and in [7] was above 100 µM each time. The TGI in experiment [8], in [10] and in experiment [11] was above 100 µM in each case.

On to `Cc1cccc2c1Oc1cc(Cl)ccc1C2NC(=O)CCN1CCOCC1` (stereo not drawn), for which the TGI in [1], in experiment [3], in experiment [4], in [5], in experiment [6] and in experiment [12] was above 100 µM each time. The TGI in experiment [7], in experiment [8] and in [10] was above 100 µM throughout.

As for `CCN1CCN(c2ccc(Nc3ccnc4ccc5nn(C)nc5c34)cc2)CC1`, the TGI in experiment [1] turned out to be 18.4 µM; in experiment [2] it was 30.8 µM; in experiment [3], 26.1 µM; in experiment [4] it was 32.5 µM; in experiment [5], 26.7 µM; in experiment [6], 25.5 µM. Besides, the TGI was above 100 µM in [7], 20.1 µM in [8], 26.2 µM in experiment [9] and 30.5 µM in [10].

Consider `O=C(C[n+]1ccccc1)NNC(=O)/C(=C/c1ccc2c(c1)OCO2)NC(=O)c1ccccc1`, for which the TGI was above 65.5 µM in experiment [1]; above 100 µM in experiment [2]; above 94.5 µM in experiment [3]; above 100 µM in experiment [4]; above 100 µM in experiment [5]; above 100 µM in experiment [6]. Besides, the TGI was 64.8 µM in experiment [7]; 49 µM in experiment [8]; above 92.4 µM in experiment [9]; above 100 µM in [10]; above 100 µM in experiment [11].

Consider `CCCCCC(C[N+]1(C)CCOCC1)C(=O)/C=C/c1ccccc1` (stereo not drawn), for which the TGI in [1] amounted to 35.9 µM; in experiment [2] it was 32 µM; in experiment [3], 15.9 µM; in [4], 37.3 µM; in experiment [5], 29.7 µM; in experiment [6] it was 21.6 µM. Further, the TGI in experiment [7] was 37.5 µM; in [8], 4.02 µM; in experiment [9] it was 25.6 µM; in [10], 30 µM; in experiment [11], 31.7 µM.

Take `COc1c(C)c2c(c(C)c1Cl)Oc1c(C=O)c(O)c(Cl)c(C)c1C(=O)O2`: the TGI is 66.4 µM in experiment [1]; 61 µM in [2]; 78.8 µM in experiment [4]; above 100 µM in [6]; 57.8 µM in experiment [7]; 90.7 µM in experiment [8]. Besides, the TGI in experiment [9] came out at 94.6 µM; in [11] it was 58.8 µM.

Consider `Clc1ccc(-c2c(C3=NCCN3)nnn2-c2ccc(Cl)cc2)cc1`, for which the TGI in [1] is 25.4 µM; in [2], 33.9 µM; in experiment [3], above 100 µM; in experiment [4], above 100 µM; in experiment [5], 64.5 µM; in experiment [6], 38.9 µM. Also, the TGI in experiment [7] was 39.1 µM; in [8], above 100 µM; in experiment [9], above 100 µM; in experiment [10], 52.5 µM; in experiment [11], 38.4 µM.

Take `Cc1cn(C2CC(ON3C(=O)c4ccccc4C3=O)C(CO)O2)c(=O)[nH]c1=O` (stereo not drawn): the TGI in [2], in [3], in [4], in experiment [5], in [6] and in [12] was above 10 µM each time. The TGI in [7], in experiment [8] and in experiment [9] was above 10 µM in each case.

Take `CNC(=S)N/N=C(C)\C(=N/NC(=S)NC)c1ccccc1`: the TGI in [1], in experiment [2], in experiment [4], in [5], in [6] and in [12] was above 100 µM throughout. Also, the TGI in experiment [8] and in experiment [9] was above 100 µM in each case.
